In ChEMBL document CHEMBL4376831, “Enhancing the Cell Permeability of Stapled Peptides with a Cyclic Cell-Penetrating Peptide” (J Med Chem, 2019):
Where a chain is given by its changes, count along the chain named. The source made the active and inactive calls. No cut-off for these calls is given here. *1 amine or outer side, *2 acyl side, *3 side chain or, on linkers, in order; H or OH if unused. Where a SMILES comes first, the peptide text is derived from it. Bridges are numbered along the chain shown (N, C = ends). Roman numbers before positions name the chains, in order. [ ]: non-standard residue; d: D form. The star is where a group is joined. X1 = O=C(O)c1cc(C(=O)*)ccc1-c1c2ccc(=O)cc-2oc2cc(O)ccc12; 2Nal = N[C@@H](Cc1ccc2ccccc2c1)C(=O)O; mXylylene = c1cc(C[*:1])cc(C[*:2])c1; Dap = NC[C@H](N)C(=O)O; AEEA = NCCOCCOCC(=O)O

Experiments:
DLD-1 = test: Induction of apoptosis in human DLD1 cells at 25 uM incubated for 48 hrs by Annexin V/propidium iodide-staining based flow cytometric analysis relative to control; assay type: functional
SW480 [1] = test: Induction of cell membrane disruption in human SW480 cells up to 50 uM incubated for 4 hrs by LDH assay relative to control; assay type: functional, cell-based
[2] = target: T1, Catenin beta-1 (Homo sapiens) (UniProt P35222); test: Inhibition of beta-catenin in human SW480 cells assessed as reduction in myc mRNA expression; assay type: cell-based
T1 sequence (whole entry): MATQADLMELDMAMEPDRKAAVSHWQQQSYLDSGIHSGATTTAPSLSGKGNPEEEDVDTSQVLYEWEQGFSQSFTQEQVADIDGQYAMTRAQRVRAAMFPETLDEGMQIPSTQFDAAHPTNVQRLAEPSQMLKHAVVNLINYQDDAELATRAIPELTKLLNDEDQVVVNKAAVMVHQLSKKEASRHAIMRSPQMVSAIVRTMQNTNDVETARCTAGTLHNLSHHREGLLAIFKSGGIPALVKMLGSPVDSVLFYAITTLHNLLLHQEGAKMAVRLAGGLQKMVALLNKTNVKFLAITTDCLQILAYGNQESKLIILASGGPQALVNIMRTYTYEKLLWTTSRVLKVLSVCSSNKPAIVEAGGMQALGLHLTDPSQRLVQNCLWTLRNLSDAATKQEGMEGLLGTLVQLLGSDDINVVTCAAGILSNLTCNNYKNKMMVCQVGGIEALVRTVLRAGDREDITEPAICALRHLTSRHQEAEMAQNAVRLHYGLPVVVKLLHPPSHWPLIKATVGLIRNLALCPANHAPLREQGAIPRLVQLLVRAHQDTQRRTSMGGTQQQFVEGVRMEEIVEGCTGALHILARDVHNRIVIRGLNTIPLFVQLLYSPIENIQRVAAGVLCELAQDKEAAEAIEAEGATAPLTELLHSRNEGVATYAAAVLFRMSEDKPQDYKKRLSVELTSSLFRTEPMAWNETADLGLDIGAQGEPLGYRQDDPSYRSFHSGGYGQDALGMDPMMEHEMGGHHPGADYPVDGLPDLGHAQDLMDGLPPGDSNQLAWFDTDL

[3] = target: T1, Catenin beta-1 (Homo sapiens); test: Inhibition of beta-catenin in human HCT116 cells assessed as reduction in myc mRNA expression; assay type: cell-based
[4] = target: T1, Catenin beta-1 (Homo sapiens); test: Inhibition of beta-catenin in human SW480 cells assessed as reduction in LGR5 mRNA expression; assay type: cell-based
[5] = target: T1, Catenin beta-1 (Homo sapiens); test: Inhibition of beta-catenin in human HCT116 cells assessed as reduction in LGR5 protein expression; assay type: cell-based
[6] = Half life in human serum at 100 uM measured up to 24 hrs by RP-HPLC analysis; assay type: ADME, cell-free
MCF7 [7] = test: Antiproliferative activity against human MCF7 cells up to 20 uM incubated for 72 hrs by MTT assay; assay type: functional, cell-based
[8] = target: T1, Catenin beta-1 (Homo sapiens); test: Inhibition of beta-catenin in human SW480 cells assessed as reduction in myc protein expression; assay type: cell-based
SW480 [9] = test: Antiproliferative activity against human SW480 cells incubated for 72 hrs by MTT assay; assay type: functional, cell-based
[10] = target: T1, Catenin beta-1 (Homo sapiens); test: Inhibition of beta-catenin in human HCT116 cells assessed as reduction in axin2 protein expression; assay type: cell-based
[11] = target: T1, Catenin beta-1 (Homo sapiens); test: Inhibition of beta-catenin in human SW480 cells assessed as reduction in axin2 protein expression; assay type: cell-based
[12] = target: T1, Catenin beta-1 (Homo sapiens); test: Inhibition of beta-catenin in human HCT116 cells assessed as reduction in LGR5 mRNA expression; assay type: cell-based
[13] = target: T1, Catenin beta-1 (Homo sapiens); test: Inhibition of beta-catenin in human SW480 cells assessed as reduction in axin2 mRNA expression; assay type: cell-based
SW480 [14] = test: Induction of apoptosis in human SW480 cells at 25 uM incubated for 48 hrs by Annexin V/propidium iodide-staining based flow cytometric analysis relative to control; assay type: functional
SW480 [15] = test: Antiproliferative activity against human SW480 cells incubated for 72 hrs by MTT assay relative to control; assay type: functional
[16] = target: T1, Catenin beta-1 (Homo sapiens); test: Inhibition of beta-catenin in human HCT116 cells assessed as reduction in axin2 mRNA expression; assay type: cell-based
[17] = target: T1, Catenin beta-1 (Homo sapiens); test: Inhibition of beta-catenin in human HCT116 cells assessed as reduction in myc protein expression; assay type: cell-based
[18] = target: T1, Catenin beta-1 (Homo sapiens); test: Inhibition of beta-catenin in human SW480 cells assessed as reduction in LGR5 protein expression; assay type: cell-based
HeLa [19] = test: Induction of cell membrane disruption in human HeLa cells incubated for 4 hrs using FAM-labeled compound by LDH assay; assay type: cell-based
HCT-116 [20] = test: Induction of cell membrane disruption in human HCT116 cells expressing wild-type p53 at =>20 uM incubated for 4 hrs by LDH assay relative to control; assay type: functional
HeLa [21] = test: Induction of apoptosis in human HeLa cells expressing wild-type p53 at =< 10 uM incubated for 48 hrs by Annexin V/propidium iodide-staining based flow cytometric analysis relative to control; assay type: functional
HCT-116 [22] = test: Induction of apoptosis in human HCT116 cells expressing wild-type p53 at =< 10 uM incubated for 48 hrs by Annexin V/propidium iodide-staining based flow cytometric analysis relative to control; assay type: functional
SJSA-1 [23] = test: Induction of apoptosis in human SJSA1 cells at 10 uM incubated for 48 hrs by Annexin V/propidium iodide-staining based flow cytometric analysis; assay type: functional, cell-based
MCF7 [24] = test: Induction of apoptosis in human MCF7 cells expressing wild-type p53 at =< 10 uM incubated for 48 hrs by Annexin V/propidium iodide-staining based flow cytometric analysis relative to control; assay type: functional
SJSA-1 [25] = settings: Homo sapiens
SJSA-1 [26] = test: cells; settings: Homo sapiens, SJSA-1, 72 h
HeLa [27] = test: Cytotoxicity against human HeLa cells incubated for 72 hrs using FAM-labeled compound by MTT assay; assay type: cell-based
HeLa [28] = test: Induction of cell membrane disruption in human HeLa cells expressing wild-type p53 at =>20 uM incubated for 4 hrs by LDH assay relative to control; assay type: functional
MCF7 [29] = test: Induction of cell membrane disruption in human MCF7 cells expressing wild-type p53 at =>20 uM incubated for 4 hrs by LDH assay relative to control; assay type: functional
SW480 [30] = test: Antiproliferative activity against human SW480 cells at 20 uM incubated for 72 hrs by MTT assay; assay type: functional, cell-based
Catenin beta-1 = target: T2, Catenin beta-1 (Mus musculus, UniProt Q02248); test: Binding affinity to mouse GST tagged beta catenin (133 to 665 residues) expressed in Escherichia coli BL21 (DE3) cells incubated for 1 hr
T2 sequence (Q02248 whole entry): T1 sequence (whole entry) with P706A

[31] = target: E3 ubiquitin-protein ligase Mdm2 (Homo sapiens, UniProt Q00987); test: Displacement of TMR-labelled PDI from human GST tagged MDM2 (1 to 139 residues) expressed in Escherichia coli BL21 (DE3) cells preincuabted for 1 hr with TMR-labelled PDI followed by compound addition and measured after 1 hr by fluorescence polarization assay
E3 ubiquitin-protein ligase Mdm2, sequence (Q00987 whole entry, the tested form may be a part): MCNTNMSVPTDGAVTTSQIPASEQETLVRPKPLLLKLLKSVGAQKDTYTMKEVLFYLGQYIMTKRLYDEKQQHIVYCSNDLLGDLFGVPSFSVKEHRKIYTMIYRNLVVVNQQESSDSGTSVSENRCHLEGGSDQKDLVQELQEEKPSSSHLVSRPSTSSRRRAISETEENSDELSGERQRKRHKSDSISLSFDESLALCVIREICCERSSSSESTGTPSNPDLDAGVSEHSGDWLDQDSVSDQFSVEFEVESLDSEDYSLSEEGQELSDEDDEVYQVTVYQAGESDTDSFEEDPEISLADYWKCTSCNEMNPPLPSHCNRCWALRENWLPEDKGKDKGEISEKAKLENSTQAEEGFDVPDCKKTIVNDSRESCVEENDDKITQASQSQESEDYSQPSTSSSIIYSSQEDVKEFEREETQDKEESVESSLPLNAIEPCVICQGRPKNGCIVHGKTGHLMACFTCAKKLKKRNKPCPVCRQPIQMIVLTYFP

CC[C@H](C)[C@@H]1NC(=O)[C@@H](NC(=O)[C@H](CCC(=O)O)NC(=O)[C@@H]2CCCN2C(=O)[C@H](Cc2ccc(O)cc2)NC(=O)CNC(=O)CNC(C)=O)CC(=O)NCCCC[C@@H](C(=O)N[C@@H](Cc2cnc[nH]2)C(=O)N[C@@H](CC(C)C)C(=O)N[C@@H](CCC(N)=O)C(=O)N[C@@H](CCCNC(=N)N)C(=O)N[C@H](C(=O)N[C@H](C(=O)N[C@@H](CC(C)C)C(=O)NCCOCCOCC(=O)NCCOCCOCC(=O)N[C@@H](CNC(=O)CC[C@@H]2NC(=O)[C@@H](CCCNC(=N)N)NC(=O)[C@H](CCCNC(=N)N)NC(=O)[C@@H](CCCNC(=N)N)NC(=O)[C@H](CCCNC(=N)N)NC(=O)[C@H](Cc3ccc4ccccc4c3)NC(=O)[C@@H](Cc3ccccc3)NC2=O)C(N)=O)[C@@H](C)CC)C(C)C)NC(=O)[C@H](CC(=O)O)NC(=O)[C@H](CC(C)C)NC1=O (I: Ac-GGYPEDILDKHLQRVIL[AEEA][AEEA][Dap]-NH2 / II: cyclo([2Nal]R[dR]R[dR]E[dF]); lactam I:6-I:10; amide I:20-II:6)
Activity (DLD-1): 10%
Activity (SW480 [1]): inactive
inhibition [2]: Active
inhibition [3]: Active
inhibition [4]: Active
inhibition [5]: Active
half-life at 100 µM [6]: 2 h
Activity (MCF7 [7]): inactive
inhibition [8]: Active
Activity (SW480 [9]): Dose-dependent effect
EC50 (SW480 [9]; SW480, 72 h): 1200 nM
inhibition [10]: Active
inhibition [11]: Active
inhibition [12]: Active
inhibition [13]: Active
Activity (SW480 [14]): 10%
Activity (SW480 [15]): 60%
inhibition [16]: Active
inhibition [17]: Active
inhibition [18]: Active

CC(=O)N[C@@H](CC(C)C)C(=O)N[C@H](C(=O)N[C@@H](Cc1ccccc1)C(=O)N[C@H]1CC(=O)NCCCC[C@@H](C(=O)N[C@@H](CCC(N)=O)C(=O)N[C@@H](CC(C)C)C(=O)N[C@H](C(=O)N[C@@H](CO)C(=O)NCCOCCOCC(=O)N[C@@H](CCCCNC(=O)CC[C@@H]2NC(=O)[C@@H](CCCNC(=N)N)NC(=O)[C@H](CCCNC(=N)N)NC(=O)[C@@H](CCCNC(=N)N)NC(=O)[C@H](CCCNC(=N)N)NC(=O)[C@H](Cc3ccc4ccccc4c3)NC(=O)[C@@H](Cc3ccccc3)NC2=O)C(N)=O)[C@@H](C)O)NC(=O)[C@H](Cc2c[nH]c3ccccc23)NC(=O)[C@H](Cc2ccc(O)cc2)NC(=O)[C@H](Cc2cnc[nH]2)NC1=O)[C@@H](C)O (I: Ac-LTFDHYWKQLTS[AEEA]K-NH2 / II: cyclo([2Nal]R[dR]R[dR]E[dF]); lactam I:4-I:8; amide I:14-II:6)
Activity (HeLa [19]): Toxic
Activity (HCT-116 [20]): 100%
Activity (HeLa [21]): 5 - 50%
Activity (HCT-116 [22]): 5 - 50%
Activity (SJSA-1 [23]): Active
Activity (MCF7 [24]): 5 - 50%
Activity (SJSA-1 [25]): Dose-dependent effect
EC50 (SJSA-1 [26]): 3800 nM
Activity (HeLa [27]): Toxic
Activity (HeLa [28]): 100%
Activity (MCF7 [29]): 100%

CC[C@H](C)[C@@H]1NC(=O)[C@@H](NC(=O)[C@H](CCC(=O)O)NC(=O)[C@@H]2CCCN2C(=O)[C@H](Cc2ccc(O)cc2)NC(=O)CNC(=O)CNC(=O)c2ccc(-c3c4ccc(=O)cc-4oc4cc(O)ccc34)c(C(=O)O)c2)CSCc2cccc(c2)CSC[C@@H](C(=O)N[C@@H](Cc2cnc[nH]2)C(=O)N[C@@H](CC(C)C)C(=O)N[C@@H](CCC(N)=O)C(=O)N[C@@H](CCCNC(=N)N)C(=O)N[C@H](C(=O)N[C@H](C(=O)N[C@@H](CC(C)C)C(N)=O)[C@@H](C)CC)C(C)C)NC(=O)[C@H](CC(=O)O)NC(=O)[C@H](CC(C)C)NC1=O (X1-GGYPECILDCHLQRVIL-NH2; linker 6-10 via mXylylene)
Activity (SW480 [30]): Active
Kd (Catenin beta-1): 18 nM

CC(=O)N[C@@H](CC(C)C)C(=O)N[C@H](C(=O)N[C@@H](C)C(=O)N[C@H]1CC(=O)NCCCC[C@@H](C(=O)N[C@@H](CCC(N)=O)C(=O)N[C@@H](CC(C)C)C(=O)N[C@H](C(=O)N[C@@H](CO)C(=O)NCCOCCOCC(=O)N[C@@H](CCCCNC(=O)CC[C@@H]2NC(=O)[C@@H](CCCNC(=N)N)NC(=O)[C@H](CCCNC(=N)N)NC(=O)[C@@H](CCCNC(=N)N)NC(=O)[C@H](CCCNC(=N)N)NC(=O)[C@H](Cc3ccc4ccccc4c3)NC(=O)[C@@H](Cc3ccccc3)NC2=O)C(N)=O)[C@@H](C)O)NC(=O)[C@H](Cc2c[nH]c3ccccc23)NC(=O)[C@H](Cc2ccc(O)cc2)NC(=O)[C@H](Cc2cnc[nH]2)NC1=O)[C@@H](C)O
Activity (HeLa [19]): Toxic
Activity (SJSA-1 [25]): inactive
Activity (HeLa [27]): Toxic
IC50 [31]: > 20000 nM
